Target: Human PDE9 (PDE9A2) (Homo sapiens (Human), UniProt O76083)
Experiment: PDE9 IMAP fluorescence polarization (FP) inhibition assay
Assay type: biochemical
Details: apparent inhibition constant; human PDE9A2, FAM-cGMP substrate 50 nM, room temperature
Protocol: The activity of the compounds in accordance with the present invention as PDE9 inhibitors may be readily determined without undue experimentation using a fluorescence polarization (FP) methodology that is well known in the art (Huang, W., et al., J. Biomol Screen, 2002, 7:215).
In a typical experiment the PDE9 inhibitory activity of the compounds of the present invention was determined in accordance with the following experimental method.
Human PDE9 (PDE9A2, GenBank Accession No. NM_001001567), full length with N-terminal GST tag, was purchased from BPS Bioscience. The fluorescence polarization assay for cyclic nucleotide phosphodiesterases was performed using an IMAP® FP kit supplied by Molecular Devices, Sunnyvale, CA (product #R8139). IMAP® technology has been applied previously to phosphodiesterase assays (Huang, W., et al., J. Biomol Screen, 2002, 7:215). Assays were performed at room temperature in 384-well microtiter plates with an incubation volume of 20.2 μL. Solutions of test compounds were prepared in DMSO and serially diluted with DMSO to yield 8 μL of each of 10 solutions differing by 3-fold in concentration, at 32 serial dilutions per plate. 100% inhibition is determined using a known PDE9 inhibitor, such as 1-(2-chlorophenyl)-6-[(2R)-3,3,3-trifluoro-2-methylpropyl]-1,5-dihydro-4H-pyrazolo[3,4-d]pyrimidine-4-one (BAY 73-6691) (Wunder et al, Mol. Pharmacol., 2005, 68 (6): 1775-81), (6-[(3S,4S)-4-methyl-1-(pyrimidin-2-ylmethyl) pyrrolidin-3-yl]-1-(tetrahydro-2H-pyran-4-yl)-1,5-dihydro-4H-pyrazolo[3,4-d]pyrimidin-4-one (PF-04447943) (Wager et al., ACS Chemical Neuroscience, 2010, 1:435-449). 0% of inhibition is determined by using DMSO (1% final concentrations). A Labcyte Echo 555 (Labcyte, Sunnyvale, CA) is used to dispense 200 nL from each well of the titration plate to the 384 well assay plate. Human PDE9A2 membrane preps were diluted to 1 ng/ml. […] PDE9 enzyme mix and compounds were mixed and incubated at room temperature for 30 min. Following which, FAMcGMP substrate was added, shaken and incubated for an additional 60 min at room temperature. The final concentration of human PDE9 membrane preparations were 0.5 ng/ml. The final concentration of FAM-cGMP was 50 nM. After the incubation period, the enzymatic reaction was stopped by addition of binding solution (IMAP-FP, Molecular Devices, comprised of 80% Solution A, 20% Solution B and a 1:600 dilution of binding reagent) to each well. The plates were shaken then incubated at room temperature for 1 h prior to determining the fluorescence polarization (mP) using a Perkin Elmer En Vision™ plate reader (Waltham, MA).
Fluorescence polarization (mP) was calculated from the parallel(S) and perpendicular (P) fluorescence of each sample well and the analogous values for the median control well, containing only substrate (So and Po), using the following equation: […]
Dose-inhibition profiles for each compound were characterized by fitting the mP data to a four-parameter equation given below. The apparent inhibition constant (KI), the maximum inhibition at the low plateau relative to “100% Inhibition Control” (Imax; e.g. 1=>same as this control), the minimum inhibition at the high plateau relative to the “0% Inhibition Control” (Imin, e.g. 0=>same as the no drug control) and the Hill slope (nH) are determined by a non-linear least squares fitting of the mP values as a function of dose of the compound using an in-house software based on the procedures described by Mosser et al., JALA, 2003, 8:54-63, using the following equation: […]
An apparent (Km) for FAM-labeled […] of 150 nM was determined in separate experiments through simultaneous variation of substrate and selected drug concentrations.

Human PDE9 (PDE9A2), sequence (O76083 other isoform, or with tags, fused parts or gaps): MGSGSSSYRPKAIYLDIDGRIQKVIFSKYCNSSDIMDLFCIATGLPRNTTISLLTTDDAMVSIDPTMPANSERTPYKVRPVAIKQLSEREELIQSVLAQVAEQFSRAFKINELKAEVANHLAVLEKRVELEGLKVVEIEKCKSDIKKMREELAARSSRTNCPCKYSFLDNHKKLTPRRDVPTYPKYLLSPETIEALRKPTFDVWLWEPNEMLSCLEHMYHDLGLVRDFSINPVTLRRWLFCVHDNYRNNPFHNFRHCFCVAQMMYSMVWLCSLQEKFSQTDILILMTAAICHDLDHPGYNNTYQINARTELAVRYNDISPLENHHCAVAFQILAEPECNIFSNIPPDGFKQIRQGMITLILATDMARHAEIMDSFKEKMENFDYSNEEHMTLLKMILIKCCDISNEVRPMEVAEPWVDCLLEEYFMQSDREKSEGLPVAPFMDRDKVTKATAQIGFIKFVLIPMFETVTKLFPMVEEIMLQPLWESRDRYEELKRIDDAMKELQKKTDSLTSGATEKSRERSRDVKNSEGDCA

Compound	Ki [nM]
CCC(c1ncc(F)cn1)N(C)c1nc2c(c(C#N)nn2C(C)C2CCOCC2)c(=O)[nH]1 (single isomer, unassigned) [Example 40, 6-[1-(5-fluoropyrimidin-2-yl)propyl-methyl-amino]-4-oxo-1-(1-tetrahydropyran-4-ylethyl)-5H-pyrazolo[3,4-d]pyrimidine-3-carbonitrile]	33.2
C=CCCC(c1ncccn1)N(C)c1nc2c(c(C#N)nn2C(C)c2ccc(C(F)(F)F)nc2)c(=O)[nH]1 (single isomer, unassigned) [Example 43, 6-[methyl(1-pyrimidin-2-ylpent-4-enyl)amino]-4-oxo-1-[1-[6-(trifluoromethyl)-3-pyridyl]ethyl]-5H-pyrazolo[3,4-d]pyrimidine-3-carbonitrile]	38.8
C=CCCC(c1ncccn1)N(C)c1nc2c(c(C#N)nn2C(C)c2ccc(C(F)(F)F)nc2)c(=O)[nH]1 (single isomer, unassigned) [Example 44, 6-[methyl(1-pyrimidin-2-ylpent-4-enyl)amino]-4-oxo-1-[1-[6-(trifluoromethyl)-3-pyridyl]ethyl]-5H-pyrazolo[3,4-d]pyrimidine-3-carbonitrile]	19.6
CC(c1ccc(C(F)(F)F)nc1)n1nc(C#N)c2c(=O)[nH]c(N3CCC3c3ncccn3)nc21 (single isomer, unassigned) [Example 46, 4-oxo-6-(2-pyrimidin-2-ylazetidin-1-yl)-1-[1-[6-(trifluoromethyl)-3-pyridyl]ethyl]-5H-pyrazolo[3,4-d]pyrimidine-3-carbonitrile]	21.4
CC(c1ccc(C(F)(F)F)nc1)n1nc(C#N)c2c(=O)[nH]c(N3CCC3c3ncccn3)nc21 (single isomer, unassigned) [Example 47, 4-oxo-6-(2-pyrimidin-2-ylazetidin-1-yl)-1-[1-[6-(trifluoromethyl)-3-pyridyl]ethyl]-5H-pyrazolo[3,4-d]pyrimidine-3-carbonitrile]	22.7
CC(c1ccc(C(F)(F)F)nc1)n1nc(C#N)c2c(=O)[nH]c(N3CCC3c3ncccn3)nc21 (single isomer, unassigned) [Example 48, 4-oxo-6-(2-pyrimidin-2-ylazetidin-1-yl)-1-[1-[6-(trifluoromethyl)-3-pyridyl]ethyl]-5H-pyrazolo[3,4-d]pyrimidine-3-carbonitrile]	17.4
CC(c1ccc(C(F)(F)F)nc1)n1nc(C#N)c2c(=O)[nH]c(N3CCC3c3ccc(F)cc3)nc21 (single isomer, unassigned) [Example 49, 6-[2-(4-fluorophenyl)azetidin-1-yl]-4-oxo-1-[1-[6-(trifluoromethyl)-3-pyridyl]ethyl]-5H-pyrazolo[3,4-d]pyrimidine-3-carbonitrile]	22.7
CC(c1ccc(C(F)(F)F)nc1)n1nc(C#N)c2c(=O)[nH]c(N3CCCC3c3ncccn3)nc21 (single isomer, unassigned) [Example 53, 4-oxo-6-(2-pyrimidin-2-ylpyrrolidin-1-yl)-1-[1-[6-(trifluoromethyl)-3-pyridyl]ethyl]-5H-pyrazolo[3,4-d]pyrimidine-3-carbonitrile]	207
CC(c1ccc(C(F)(F)F)nc1)n1nc(C#N)c2c(=O)[nH]c(N3CCCC3c3ncccn3)nc21 (single isomer, unassigned) [Example 55, 4-oxo-6-(2-pyrimidin-2-ylpyrrolidin-1-yl)-1-[1-[6-(trifluoromethyl)-3-pyridyl]ethyl]-5H-pyrazolo[3,4-d]pyrimidine-3-carbonitrile]	124
CC(c1ccc(C(F)(F)F)nc1)n1nc(C#N)c2c(=O)[nH]c(N3CCCC3c3ncccn3)nc21 (single isomer, unassigned) [Example 56, 4-oxo-6-(2-pyrimidin-2-ylpyrrolidin-1-yl)-1-[1-[6-(trifluoromethyl)-3-pyridyl]ethyl]-5H-pyrazolo[3,4-d]pyrimidine-3-carbonitrile]	289

Compounds with a lower Ki, results first:

Ki [nM]	Compound
13.2	C=CCCC(c1ncccn1)N(C)c1nc2c(c(C#N)nn2C(C)c2ccc(C(F)(F)F)nc2)c(=O)[nH]1 (single isomer, unassigned) [Example 42, 6-[methyl(1-pyrimidin-2-ylpent-4-enyl)amino]-4-oxo-1-[1-[6-(trifluoromethyl)-3-pyridyl]ethyl]-5H-pyrazolo[3,4-d]pyrimidine-3-carbonitrile]
7.8	CC(c1ccc(C(F)(F)F)nc1)n1nc(C#N)c2c(=O)[nH]c(N3CCC3c3ccc(F)cc3)nc21 (single isomer, unassigned) [Example 58, 6-[2-(4-fluorophenyl)azetidin-1-yl]-4-oxo-1-[1-[6-(trifluoromethyl)-3-pyridyl]ethyl]-5H-pyrazolo[3,4-d]pyrimidine-3-carbonitrile]
7.41	CC(c1ccc(C(F)(F)F)nc1)n1nc(C#N)c2c(=O)[nH]c(N3CCC3c3ccc(F)cc3)nc21 (single isomer, unassigned) [Example 51, 6-[2-(4-fluorophenyl)azetidin-1-yl]-4-oxo-1-[1-[6-(trifluoromethyl)-3-pyridyl]ethyl]-5H-pyrazolo[3,4-d]pyrimidine-3-carbonitrile]
6.7	CC(c1ccc(C(F)(F)F)nc1)n1nc(C#N)c2c(=O)[nH]c(N3CCC3c3ccc(F)cc3)nc21 (single isomer, unassigned) [Example 52, 6-[2-(4-fluorophenyl)azetidin-1-yl]-4-oxo-1-[1-[6-(trifluoromethyl)-3-pyridyl]ethyl]-5H-pyrazolo[3,4-d]pyrimidine-3-carbonitrile]
6.53	CC(c1ccc(C(F)(F)F)nc1)n1nc(C#N)c2c(=O)[nH]c(N3CCCC3c3ncccn3)nc21 (single isomer, unassigned) [Example 54, 4-oxo-6-(2-pyrimidin-2-ylpyrrolidin-1-yl)-1-[1-[6-(trifluoromethyl)-3-pyridyl]ethyl]-5H-pyrazolo[3,4-d]pyrimidine-3-carbonitrile]
1.05	CC(c1ccc(C(F)(F)F)nc1)n1nc(C#N)c2c(=O)[nH]c(N3CCC3c3ccc(F)cc3)nc21 (single isomer, unassigned) [Example 57, 6-[2-(4-fluorophenyl)azetidin-1-yl]-4-oxo-1-[1-[6-(trifluoromethyl)-3-pyridyl]ethyl]-5H-pyrazolo[3,4-d]pyrimidine-3-carbonitrile]
0.6	CC(c1ccc(C(F)(F)F)nc1)n1nc(C#N)c2c(=O)[nH]c(N3CCC3c3ccc(F)cc3)nc21 (single isomer, unassigned) [Example 50, 6-[2-(4-fluorophenyl)azetidin-1-yl]-4-oxo-1-[1-[6-(trifluoromethyl)-3-pyridyl]ethyl]-5H-pyrazolo[3,4-d]pyrimidine-3-carbonitrile]
0.42	C=CCCC(c1ncccn1)N(C)c1nc2c(c(C#N)nn2C(C)c2ccc(C(F)(F)F)nc2)c(=O)[nH]1 (single isomer, unassigned) [Example 41, 6-[methyl(1-pyrimidin-2-ylpent-4-enyl)amino]-4-oxo-1-[1-[6-(trifluoromethyl)-3-pyridyl]ethyl]-5H-pyrazolo[3,4-d]pyrimidine-3-carbonitrile]
0.23	CC(c1ccc(C(F)(F)F)nc1)n1nc(C#N)c2c(=O)[nH]c(N3CCC3c3ncccn3)nc21 (single isomer, unassigned) [Example 45, 4-oxo-6-(2-pyrimidin-2-ylazetidin-1-yl)-1-[1-[6-(trifluoromethyl)-3-pyridyl]ethyl]-5H-pyrazolo[3,4-d]pyrimidine-3-carbonitrile]

From patent US20260001888A1, “PYRAZOLOPYRIMIDINE PDE9 INHIBITORS” (Merck Sharp & Dohme LLC, priority 2018, published 2026)
